Source: patent US4260630A, “Skin diseases” (priority 1977, dated 1981)

Assays:
[1] = system: Saccharomyces cerevisiae; assay: Repair of photoinduced lesions in yeast (repair mutants, agar holding); format: cell-based
Source text: Biophys. Acta, 395, 393-404.
Consequently, it appears that the excision repair pathway in wild type and rad9-4 cells is essential in AHR for both compounds.

[2] = system: calf thymus DNA; assay: Photobinding to native calf thymus DNA in vitro; format: binding
Experimental: These determinations were done in vitro and in vivo. […] The thickness of the irradiated sample was 1 mm. After irradiation, the solution was diluted by a factor of 2, and NaCl was added to a final concentration of 1 M. The DNA was precipitated with 2 volumes of cold pure ethanol. The samples were left overnight in the cold at -20° C. The precipitate was then washed by centrifugation three times with 3 ml of 70% ethanol and redissolved in 3 ml of water. The DNA recovery was checked by determination of the optical density of the solution at 260 nm.

[3] = system: yeast RNA; assay: Photobinding to yeast RNA in vivo (radiolabelled drug plus 365 nm light); format: binding, Saccharomyces cerevisiae; details: for cpm for 10^8 cells: RNA; for Molecules 8-MOP/μg DNA / μg 8-MOP/μg DNA: binding to RNA
Experimental: (§1) The radioactivity of an aliquot (0.1 ml) of this solution was measured in 5 ml of scintillation mixture (Nuclear Entreprise, Ltd., Edinburgh, Scotland, NE 250).
(§2) For the in vivo determinations stationary phase cells of the haploid wild type strain N 123 were prepared as previously described.
(§3) 2 ml cell suspensions were exposed to several doses of 365 nm light. In parallel, non irradiated samples were incubated for the same periods. Immediately after incubation and/or irradiation, the samples were centrifuged and the pellet was washed 3 times with 5 ml of saline (0.9% NaCl). The washed cell pellet was resuspended in 1 ml of saline and 1 ml of 2 N NaOH was added in order to hydrolyze the RNA. The suspension was incubated overnight in the dark at room temperature, then cooled down on ice, and 2 ml of 50% TCA were added slowly. The samples were left 20 minutes on ice and the precipitated DNA was filtered on a glass fiber filter disc (Whatman GF/A, 2.1 cm diameter). In some cases the filtrate containing the acid-soluble material was kept aside, and the radioactivity of an aliquot added to 5 ml of NE250 scintillation mixture measured. The precipitate was washed 3 times with 5 ml of 5% cold TCA and 5 ml of 70% ethanol. The filters were then dried and the radioactivity measured in plastic counting vials containing 5 ml of scintillation mixture (NE 250) in a Tricarb Packard scintillation spectrophotometer.

[4] = system: yeast DNA; assay: Photobinding to yeast DNA in vivo (radiolabelled drug plus 365 nm light); format: binding, Saccharomyces cerevisiae
Experimental: as §1, §2, §3

[5] = system: Saccharomyces cerevisiae; assay: Induction of cytoplasmic "petite" mutations in yeast; details: compared at the same survival level (10%)
Experimental: (§4) A wild-type strain 211-1aM (29) of Saccharomyces cerivisiae was used, and the following mutants derived from it: S24-12c rad2-20 deficient in excision repair and S25-13b rad9-4 likely to be blocked in a recombinational repair pathway; a double mutant S 2057NL-24 rad2-20 -rad9-4 clone B was obtained by tetrad analysis of a heterozygote [formula]
(§5) The media and culture conditions used were as described in D. Averbeck, E. Moustacchi, (1975) Biochim. Biophys. Acta, 395, 393-404.
(§6) 10^6 cells/ml in saline (0.9% NaCl) were treated for 30 minutes with the drugs at a final concentration of 10 μg/ml and 1.2% ethanol present.
A Philips HPW 125 culot Edison high pressure mercury lamp was used with maximal output at the wavelength 365 nm. The irradiation dose measured by actinometry was 10 J/m^2 per sec., using the following set up: 10 ml of actinometer solution (or the cell suspension, usually 1×10^6 cells/ml), stirred continuously by a magnetic stirrer, were irradiated at room temperature in an open Petri dish of 10 cm diameter at a distance of 10 cm from the center of the light bulb which was mounted horizontally. A 2 mm thick pyrex glass sheet (20×25 cm) was placed in the center of the light beam to cut out UV light of wavelength below 340 nm. […]

[6] = system: yeast DNA; assay: Melting and reassociation (cross-link formation) of yeast DNA treated in vitro plus 365 nm light; format: biochemical
Experimental: Measurement of the melting and reassociation characteristics of yeast DNA:
Biophys. […] The fractions containing the nuclear DNA were pooled and dialysed against a 0.1 M, pH 7 phosphate buffer. […] Unirradiated samples of DNA with or without the drugs were taken as references.
The cross-links formation of the two furocoumarins with native yeast DNA was tested by measuring the denaturation and renaturation pattern.

[7] = system: Saccharomyces cerevisiae
Experimental: as §4, §5, §6
A Philips HPW 125 culot Edison high pressure mercury lamp was used with maximal output at the wavelength 365 nm. The irradiation dose measured by actinometry was 10 J/m^2 per sec., using the following set up: 10 ml of actinometer solution (or the cell suspension, usually 1×10^6 cells/ml), stirred continuously by a magnetic stirrer, were irradiated at room temperature in an open Petri dish of 10 cm diameter at a distance of 10 cm from the center of the light bulb which was mounted horizontally. A 2 mm thick pyrex glass sheet (20×25 cm) was placed in the center of the light beam to cut out UV light of wavelength below 340 nm. Overheating was prevented either by a continuous flow of compressed air between the light bulb and the glass or by a pyrex glass water filter of 3 cm total thickness. An accumulative irradiation dose was given to the same sample. After each dose 0.1 ml of irradiated cell suspension was taken, diluted and aliquots plated.

[8] = 7.5 × 10^-5, 30 min, 37.8 erg. cm^-2 365 nm (so in the source)
[9] = 7.5 × 10^-5, 60 min, 75.6 erg. cm^-2 365 nm (so in the source)
[10] = 7.5 × 10^-5, 90 min, 113.4 erg. cm^-2 365 nm (so in the source)
[11] = 7.5 × 10^-5, 120 min, 151.2 erg. cm^-2 365 nm (so in the source)
[12] = 7.5 × 10^-5, 180 min, 226.8 erg. cm^-2 365 nm (so in the source)
[13] = 8-MOP, 15 min, 18.9 × 10^4 ergs.mm^-2 365 nm
[14] = 8-MOP, 30 min, 37.8 × 10^4 ergs.mm^-2 365 nm
[15] = 8-MOP, 60 min, 75.6 × 10^4 ergs.mm^-2 365 nm
[16] = 8-MOP, 90 min, 113.4 × 10^4 ergs.mm^-2 365 nm
[17] = 8-MOP, 120 min, 151.2 × 10^4 ergs.mm^-2 365 nm
[18] = 15 min, 18.9 × 10^4 ergs.mm^-2 365 nm
[19] = 30 min, 37.8 × 10^4 ergs.mm^-2 365 nm
[20] = 60 min, 75.6 × 10^4 ergs.mm^-2 365 nm
[21] = 90 min, 113.4 × 10^4 ergs.mm^-2 365 nm
[22] = 120 min, 151.2 × 10^4 ergs.mm^-2 365 nm
[23] = equimolar concentration to 3-CPs

COc1c2occc2cc2ccc(=O)oc12 [Example 8-MOP, 8-methoxypsoralen, reference compound]
dark repair by strain defective in excision ([1]; agar holding): unable to perform a dark repair | interaction between rad2 and rad9 repair pathways ([1]; plus 365 nm light): additive interaction | kinetics of agar holding recovery (AHR) ([1]; wild-type cells): same kinetics of AHR | μg 8-MOP/μDNA ([2]; 7.5 × 10^-5, 0-180 min incub. (dark)): 0.031×10^-4 μg 8-MOP/μDNA | Binding yield 8-MOP molecules/nucleotide [2, 8]: 1/900 | μg 8-MOP/μDNA [2, 8]: 7.3×10^-4 μg 8-MOP/μDNA | Binding yield 8-MOP molecules/nucleotide [2, 9]: 1/532 | μg 8-MOP/μDNA [2, 9]: 12.4×10^-4 μg 8-MOP/μDNA | Binding yield 8-MOP molecules/nucleotide [2, 10]: 1/428 | μg 8-MOP/μDNA [2, 10]: 15.4×10^-4 μg 8-MOP/μDNA | Binding yield 8-MOP molecules/nucleotide [2, 11]: 1/386 | μg 8-MOP/μDNA [2, 11]: 17.1×10^-4 μg 8-MOP/μDNA | Binding yield 8-MOP molecules/nucleotide [2, 12]: 1.256 molecules/nucleotide | μg 8-MOP/μDNA [2, 12]: 25.8×10^-4 μg 8-MOP/μDNA | cpm/μg DNA ([2]; 8-MOP 7.5 × 10^-5, 0-180 min incub. (dark)): 0.24 cpm/μg DNA | cpm/μg DNA ([2]; 8-MOP 7.5 × 10^-5, 30 min, 37.8 erg. cm^-2 365 nm (so in the source)): 56.3 cpm/μg DNA | cpm/μg DNA ([2]; 8-MOP 7.5 × 10^-5, 60 min, 75.6 erg. cm^-2 365 nm (so in the source)): 95.7 cpm/μg DNA | cpm/μg DNA ([2]; 8-MOP 7.5 × 10^-5, 90 min, 113.4 erg. cm^-2 365 nm (so in the source)): 118.8 cpm/μg DNA | cpm/μg DNA ([2]; 8-MOP 7.5 × 10^-5, 120 min, 151.2 erg. cm^-2 365 nm (so in the source)): 131.5 cpm/μg DNA | cpm/μg DNA ([2]; 8-MOP 7.5 × 10^-5, 180 min, 226.8 erg. cm^-2 365 nm (so in the source)): 198.5 cpm/μg DNA | photoaffinity for RNA [3]: relatively low photoaffinity for RNA | cpm for 10^8 cells [3, 13]: 7400 cpm for 10^8 cells | cpm for 10^8 cells [3, 14]: 12920 cpm for 10^8 cells | cpm for 10^8 cells [3, 15]: 23580 cpm for 10^8 cells | cpm for 10^8 cells [3, 16]: 34150 cpm for 10^8 cells | cpm for 10^8 cells [3, 17]: 44060 cpm for 10^8 cells | cpm for 10^8 cells ([3]; 15-120 min, no 365 nm light): 3805 cpm for 10^8 cells | Molecules 8-MOP/μg DNA ([3]; 15-120 min, no 365 nm light): 0.033 Molecules 8-MOP/μg DNA × 10^14 | μg 8-MOP/μg DNA ([3]; 15-120 min, no 365 nm light): 0.12 μg 8-MOP/μg DNA × 10^-2 | Molecules 8-MOP/μg DNA [3, 18]: 0.064 Molecules 8-MOP/μg DNA × 10^14 | μg 8-MOP/μg DNA [3, 18]: 0.228 μg 8-MOP/μg DNA × 10^-2 | Molecules 8-MOP/μg DNA [3, 19]: 0.11 Molecules 8-MOP/μg DNA × 10^14 | μg 8-MOP/μg DNA [3, 19]: 0.40 μg 8-MOP/μg DNA × 10^-2 | Molecules 8-MOP/μg DNA [3, 20]: 0.20 Molecules 8-MOP/μg DNA × 10^14 | μg 8-MOP/μg DNA [3, 20]: 0.73 μg 8-MOP/μg DNA × 10^-2 | Molecules 8-MOP/μg DNA [3, 21]: 0.29 Molecules 8-MOP/μg DNA × 10^14 | μg 8-MOP/μg DNA [3, 21]: 1.05 μg 8-MOP/μg DNA × 10^-2 | Molecules 8-MOP/μg DNA [3, 22]: 0.38 Molecules 8-MOP/μg DNA × 10^14 | μg 8-MOP/μg DNA [3, 22]: 1.36 μg 8-MOP/μg DNA × 10^-2 | light dose dependence of binding with RNA [3, 23]: increases linearly in the range of light doses used | cpm for 10^8 cells [4, 13]: 1161 cpm for 10^8 cells | cpm for 10^8 cells [4, 14]: 1474 cpm for 10^8 cells | cpm for 10^8 cells [4, 15]: 2805 cpm for 10^8 cells | cpm for 10^8 cells [4, 16]: 5582 cpm for 10^8 cells | cpm for 10^8 cells [4, 17]: 5572 cpm for 10^8 cells | Molecules 8-MOP/μg DNA ([4]; 15-120 min, no 365 nm light): 0.034 Molecules 8-MOP/μg DNA × 10^14 | cpm for 10^8 cells ([4]; 15-120 min, no 365 nm light): 404.75 cpm for 10^8 cells | μg 8-MOP/μg DNA ([4]; 15-120 min, no 365 nm light): 0.126 μg 8-MOP/μg DNA × 10^-2 | molecules linked to DNA per cell ([4]; 18.9×10^3 J/m^2, 5×10^-5 M): 0.5×10^6 molecules per cell | binding to DNA in vivo compared with in vitro ([4]; 365 nm light): much higher in the in vivo condition than in vitro | Molecules 8-MOP/μg DNA [4, 18]: 0.10 Molecules 8-MOP/μg DNA × 10^14 | μg 8-MOP/μg DNA [4, 18]: 0.36 μg 8-MOP/μg DNA × 10^-2 | Molecules 8-MOP/μg DNA [4, 19]: 0.13 Molecules 8-MOP/μg DNA × 10^14 | μg 8-MOP/μg DNA [4, 19]: 0.46 μg 8-MOP/μg DNA × 10^-2 | Molecules 8-MOP/μg DNA [4, 20]: 0.24 Molecules 8-MOP/μg DNA × 10^14 | μg 8-MOP/μg DNA [4, 20]: 0.86 μg 8-MOP/μg DNA × 10^-2 | Molecules 8-MOP/μg DNA [4, 21]: 0.48 Molecules 8-MOP/μg DNA × 10^14 | μg 8-MOP/μg DNA [4, 21]: 1.72 μg 8-MOP/μg DNA × 10^-2 | Molecules 8-MOP/μg DNA [4, 22]: 0.48 Molecules 8-MOP/μg DNA × 10^14 | μg 8-MOP/μg DNA [4, 22]: 1.72 μg 8-MOP/μg DNA × 10^-2 | light dose dependence of binding with DNA [4, 23]: increases linearly in the range of light doses used | induction of cytoplasmic "petite" mutations [5]: less reactive | reassociation of DNA after heat denaturation [6]: a fraction of the DNA is capable to renature | photosensitization of cells compared with 3-CPs or angelicin [7]: more photosensitized | survivors ([7]; saline, 5 min): 10^-5
